Test results published in US20150246898A1, “METALLOENZYME INHIBITOR COMPOUNDS” (DOW AGROSCIENCES LLC, priority 2012, published 2015).
In brackets after ≈: the same amount, converted by molar mass.

Legend:
T. rubrum = assay: Minimum Inhibitory Concentration (MIC) (T. rubrum), CLSI M27-A2; format: cell-based; conditions: Trichophyton rubrum; about 50% growth reduction, approx. 96 h at 35 °C, RPMI+MOPS
Experimental: Compounds of the present disclosure were assessed for their ability to inhibit the growth of common strains of fungus, T. rubrum using a standardized procedure (CLSI M27-A2). Stock solutions of the test compounds and standards were prepared in DMSO at 1,600 μg/mL (T. rubrum). Eleven, serial, one-half dilutions of compounds were prepared in 96-well plates in RPMI+MOPS. The assay concentration ranges were 8-0.001 μg/mL (T. rubrum). Cell suspensions of T. rubrum were prepared and added to each well at concentrations of approximately 3.7×10^3 colony-forming-units per milliliter (cfu/mL). All testing was in duplicate. The inoculated plates were incubated for approximately 96 h at 35±1° C. At the completion of incubation the wells of each plate were evaluated visually for the presence of fungal growth. […] For voriconazole the MIC was the concentration which reduced T rubrum growth by 50% (per CLSI, M27-A2). For QC purposes C. krusei isolate ATCC 6258 (4.0×10^3 cfu/mL) was included in the VOR assay.

[1] = test system: Septoria tritici (ATCC 26517); assay: Minimum Inhibitory Concentration (MIC) vs. Septoria tritici, CLSI-based microdilution; format: cell-based; conditions: Zymoseptoria tritici, ATCC26517, 168 h; MIC = 50% reduction in growth of S. tritici, 7 days at 22 °C, RPMI/MOPS, 1% DMSO; read-out: Septoria Rating (MIC)
Experimental: Compounds of the present disclosure were assessed for their ability to inhibit the growth of a common strain of the fungal plant pathogen Septoria tritici (ATCC 26517) using a procedure based on a Clinical and Laboratory Standards Institute (CLSI) microdilution assay protocol for filamentous fungi. Stock solutions of the test compounds and standards were prepared in DMSO at 6400 μg/mL. Each stock solution was used to prepare a 2-fold dilution series ranging from 16 to 0.016 μg/mL (total of 11 compound concentrations) in RPMI-1640 (Roswell Park Memorial Institute) medium containing 3-(N-morpholino)propanesulfonic acid (MOPS) buffer and 2% DMSO. A 100 μL aliquot of the dilutions was added to columns 1 (16 μg/mL compound) through 11 (0.016 μg/mL compound) of a 96-well microtiter plate. This format was replicated in a second row of the microtiter plate. Thus, each microtiter plate could include 11 concentrations of four test or control compounds replicated twice. A 100 μL aliquot of RPMI-1640/MOPS/2% DMSO medium was added to column 12 (no compound control) of the microtiter plate. A fresh culture of S. tritici was used to prepare a solution of approximately 5×10^4 colony-forming units per milliliter (cfu/mL) in RPMI/MOPS medium without DMSO. A 100 μL aliquot of this solution was added to all 96 wells in the microtiter plate. […] In each case of Table 3 the Septoria rating scale is as follows: […]

[2] = test system: Puccinia recondita tritici = Puccinia triticina (PUCCRT); assay: Fungicidal activity vs. leaf rust on wheat plants (1-day protectant spray); format: in vivo; conditions: wheat (variety Yuma) sprayed at 50 ppm, inoculated next day, disease severity evaluated 7-9 days later, read-out: Puccinia Rating (% Disease Control @ 50 ppm)
Text: Each pot contained 3-8 seedlings. These plants were sprayed until wet with the formulated test compounds. The compounds were formulated at 50 ppm in 10 vol. % acetone plus 90 vol. % Triton X water (deionized water 99.99 wt %+0.01 wt % Triton X100), giving a “formulated test compound.” Formulated test compounds were applied to plants using a turn table sprayer fitted with two opposing air atomization nozzles which delivered approximately 1500 L/ha of spray volume. On the following day, the leaves were inoculated with an aqueous spore suspension of Puccinia recondita tritici and the plants were kept in high humidity overnight to permit spores to germinate and infect the leaf. The plants were then transferred to a greenhouse until disease developed on untreated control plants. Disease severity was evaluated 7-9 days later, depending on the speed of disease development. In each case of Table 3, the Puccinia rating scale is as follows: […]

| MIC (T. rubrum) [µg/mL] | MIC [1] [µg/mL] | SMILES | pest or weed control at 50 ppm [2] [%] |
| --- | --- | --- | --- |
| 0.125 (≈ 0.292 µM) | 0.5 to 1.5 (≈ 1.17 to 3.5 µM) | OC(c1cncnc1)(c1ccc(F)cc1F)C(F)(F)c1ccc(Br)cn1 (racemic) [Example 1, 2-(5-bromopyridin-2-yl)-1-(2,4-difluorophenyl)-2,2-difluoro-1-(pyrimidin-5-yl)ethanol] | – |
| – | ≤ 0.5 | OC(c1cncnc1)(c1ccc(F)cc1F)C(F)(F)c1ccc(OCc2ccc(C(F)(F)F)cc2)cn1 (racemic) [Example 65] | 80 to 100 |
| – | 0.5 to 1.5 (≈ 0.954 to 2.86 µM) | OC(c1cncnc1)(c1ccc(F)cc1F)C(F)(F)c1ccc(OCc2ccc(Cl)c(Cl)c2)cn1 (centres unmarked) [Example 52] | 60 to 79 |

More lines, now with the values behind:

| SMILES | MIC (T. rubrum) [µg/mL] | MIC [1] [µg/mL] | pest or weed control at 50 ppm [2] [%] |
| --- | --- | --- | --- |
| OC(c1cncnc1)(c1ccc(F)cc1F)C(F)(F)c1ccc(C#Cc2ccc(F)cc2)cn1 (racemic) [Example 2, 1-(2,4-difluorophenyl)-2,2-difluoro-2-(5-((4-fluorophenyl)ethynyl)pyridin-2-yl)-1-(pyrimidin-5-yl)ethanol] | 0.25 (≈ 0.535 µM) | ≤ 0.5 | 80 to 100 |
| CC(C)C(O)(c1cncnc1)C(F)(F)c1ccc(C#Cc2cccc(C#N)c2)cn1 (racemic) [Example 67] | – | ≤ 0.5 | < 40 |
| OC(c1cncnc1)(C1CC1)C(F)(F)c1ccc(C#Cc2ccc(F)cc2)cn1 (racemic) [Example 70, 1-Cyclopropyl-2,2-difluoro-2-(5-((4-fluorophenyl)ethynyl)pyridin-2-yl)-1-(pyrimidin-5-yl)ethanol] | – | ≤ 0.5 | 80 to 100 |
| C[C@@H](c1ncncc1F)[C@](O)(Cn1cncn1)c1ccc(F)cc1F [Voriconazole, voriconazole, reference compound] | 0.062 (≈ 0.177 µM) | – | – |
